Results: article PMC12514971 (Protein science : a publication of the Protein Society, 2025)

Molecular target: T1, ADAR1p150 (Zα domain) (Homo sapiens, UniProt P55265)
T1 sequence (P55265 133-199 limits assumed): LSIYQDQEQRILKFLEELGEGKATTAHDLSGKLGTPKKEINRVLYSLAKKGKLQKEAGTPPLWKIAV
Test: MST titration
Format: binding

Kd: > 774 µM
SMILES: O=C(O)c1cc(=O)c2c(OCC(O)COc3cccc4oc(C(=O)O)cc(=O)c34)cccc2o1 [cromolyn]
